Measurements as given in ChEMBL document CHEMBL1201862, “PubChem BioAssay data set” (2004).
The source made the active and inactive calls.

How the values were obtained:
[1] = molecular target: T1, Carboxy-terminal domain RNA polymerase II polypeptide A small phosphatase 1 (Homo sapiens, UniProt Q9GZU7); experiment: CTDSP1 inhibitors, concentration-response, biochemical, absorbance readout, ultra-high-throughput screen actives (AID 540297); type: functional
T1 sequence (Q9GZU7 whole entry): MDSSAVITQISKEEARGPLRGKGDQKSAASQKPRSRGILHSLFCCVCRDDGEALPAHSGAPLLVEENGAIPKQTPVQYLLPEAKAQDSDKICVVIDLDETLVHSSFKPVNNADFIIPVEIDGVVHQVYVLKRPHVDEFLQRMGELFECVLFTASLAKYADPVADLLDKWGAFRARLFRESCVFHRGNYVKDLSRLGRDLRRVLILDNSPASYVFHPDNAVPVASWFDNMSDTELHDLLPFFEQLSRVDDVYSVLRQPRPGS

[2] = molecular target: T2, RNA-binding protein pos-1 (Caenorhabditis elegans, UniProt G5EF15); experiment: disruptors of C. elegans POS-1 RNA interaction – biochemical, fluorescence polarization, dose response (AID 1964);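 note: purified POS-1 fused to maltose binding protein made in E. coli; potency of compounds blocking POS-1 binding to fluorescent RNA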
T2 sequence (G5EF15 whole entry): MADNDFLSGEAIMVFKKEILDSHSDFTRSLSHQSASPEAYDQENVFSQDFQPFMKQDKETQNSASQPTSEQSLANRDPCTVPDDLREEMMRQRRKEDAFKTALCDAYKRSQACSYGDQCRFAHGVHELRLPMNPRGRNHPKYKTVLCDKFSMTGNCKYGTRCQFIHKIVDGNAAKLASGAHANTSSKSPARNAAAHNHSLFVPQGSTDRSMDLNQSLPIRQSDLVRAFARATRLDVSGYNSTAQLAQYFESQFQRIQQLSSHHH

[3] = molecular target: T3, Zinc finger protein mex-5 (Caenorhabditis elegans, UniProt Q9XUB2); experiment: potency of MEX-5 RNA-binding blockers – biochemical, C. elegans, fluorescence polarization, dose response (AID 1960)
T3 sequence (Q9XUB2 whole entry): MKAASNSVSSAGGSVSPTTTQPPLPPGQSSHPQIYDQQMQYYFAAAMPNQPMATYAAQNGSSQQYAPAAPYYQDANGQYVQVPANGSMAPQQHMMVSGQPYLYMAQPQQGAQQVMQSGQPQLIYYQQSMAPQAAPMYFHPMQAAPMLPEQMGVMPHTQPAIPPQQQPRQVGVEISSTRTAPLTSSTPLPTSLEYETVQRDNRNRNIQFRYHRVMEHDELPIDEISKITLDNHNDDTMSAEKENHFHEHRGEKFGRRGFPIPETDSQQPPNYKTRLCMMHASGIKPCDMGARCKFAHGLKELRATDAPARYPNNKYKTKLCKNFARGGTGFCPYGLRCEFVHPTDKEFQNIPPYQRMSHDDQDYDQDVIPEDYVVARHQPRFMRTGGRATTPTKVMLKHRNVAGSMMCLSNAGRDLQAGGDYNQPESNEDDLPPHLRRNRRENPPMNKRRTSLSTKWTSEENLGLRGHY

H9c2 = experiment: cells; type: functional, cell-based; details: Rattus norvegicus, H9c2, Myocardium;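 note: confirmatory concentration-response retest of ultra-high-throughput screening hits for modulation of myocardial damage; cell death induced by hydrogen peroxide oxidative stress; compound pretreatment for 60 min then peroxide exposure for 2 h; potency is for protecting the cells against peroxide damage rather than for killing them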
Protein skinhead-1 = molecular target: T4, Protein skinhead-1 (Caenorhabditis elegans, UniProt P34707); type: functional
T4 sequence (P34707 whole entry): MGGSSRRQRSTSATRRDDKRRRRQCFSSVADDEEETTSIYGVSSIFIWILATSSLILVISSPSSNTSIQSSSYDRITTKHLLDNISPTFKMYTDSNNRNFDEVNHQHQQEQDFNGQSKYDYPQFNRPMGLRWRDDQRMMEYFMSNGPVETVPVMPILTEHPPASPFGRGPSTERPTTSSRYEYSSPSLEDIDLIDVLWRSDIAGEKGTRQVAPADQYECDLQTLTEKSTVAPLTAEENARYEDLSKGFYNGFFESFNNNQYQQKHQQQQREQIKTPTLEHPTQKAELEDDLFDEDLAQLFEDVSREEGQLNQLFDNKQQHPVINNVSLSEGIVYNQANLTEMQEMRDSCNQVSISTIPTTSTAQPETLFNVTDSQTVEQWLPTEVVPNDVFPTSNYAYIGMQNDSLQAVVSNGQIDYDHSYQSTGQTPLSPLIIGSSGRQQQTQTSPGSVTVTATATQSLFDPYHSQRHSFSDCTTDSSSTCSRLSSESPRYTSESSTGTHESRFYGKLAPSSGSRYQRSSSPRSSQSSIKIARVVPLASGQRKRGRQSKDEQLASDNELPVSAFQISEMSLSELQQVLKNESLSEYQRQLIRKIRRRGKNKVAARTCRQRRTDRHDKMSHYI

[4] = molecular target: T5, Corticotropin-releasing factor receptor 2/Corticotropin-releasing factor-binding protein (Homo sapiens, UniProt P24387+Q13324); experiment: activators of CRF receptor 2 with binding protein – uHTS hits, confirmation (AID 602473); type: functional; details: read-out: EC50_Mean
T5 sequence (Q13324 whole entry): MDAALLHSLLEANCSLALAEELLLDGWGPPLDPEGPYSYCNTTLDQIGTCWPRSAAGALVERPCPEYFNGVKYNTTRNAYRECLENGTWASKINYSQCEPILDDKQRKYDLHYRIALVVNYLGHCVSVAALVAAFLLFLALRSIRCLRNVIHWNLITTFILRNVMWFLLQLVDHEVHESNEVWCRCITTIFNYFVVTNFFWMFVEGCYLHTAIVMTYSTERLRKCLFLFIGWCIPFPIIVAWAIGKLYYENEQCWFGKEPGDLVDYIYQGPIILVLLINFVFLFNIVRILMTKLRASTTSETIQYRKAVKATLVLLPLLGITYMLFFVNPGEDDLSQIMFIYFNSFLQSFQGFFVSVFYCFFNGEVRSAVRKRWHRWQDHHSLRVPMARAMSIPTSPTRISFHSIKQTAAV
T5 sequence (P24387 whole entry): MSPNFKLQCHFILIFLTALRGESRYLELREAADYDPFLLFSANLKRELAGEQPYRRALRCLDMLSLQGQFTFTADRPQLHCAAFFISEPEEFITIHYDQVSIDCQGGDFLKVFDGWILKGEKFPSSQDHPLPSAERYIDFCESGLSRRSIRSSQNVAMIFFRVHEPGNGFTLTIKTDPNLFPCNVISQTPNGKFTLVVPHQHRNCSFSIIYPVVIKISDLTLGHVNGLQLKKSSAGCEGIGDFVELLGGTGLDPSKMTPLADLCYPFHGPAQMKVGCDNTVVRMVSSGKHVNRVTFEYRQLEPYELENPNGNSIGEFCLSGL

[5] = Luminescence Cell-Based Dose Response HTS to Identify Activators of Luciferase Translation or Activity in H4 […] Cells. [Related pubchem assays: 1829 (Project Summary), 1814 (Primary HTS)]; type: functional
H4 = experiment: Luminescence Cell-Based Dose Response HTS to Identify Activators of 5'UTR Stem-Loop Driven Prion Protein mRNA Translation in H4 Neuroglioblastoma Cells. [Related pubchem assays: 1829 (Project Summary), 1814 (Primary HTS)]; type: functional; details: Homo sapiens
[6] = molecular target: T6, Heat shock factor protein 1 (Mus musculus, UniProt P38532); experiment: enhancement of HSF1-driven luciferase signal – cell-based, NIH3T3, luminescence, dose retest, confirmation (AID 435004); type: functional;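 note: stress induced by proteasome inhibitor MG132 added 30 min after compound; luciferase reporter driven by HSF1 response element in NIH3T3 cells; actives raise luminescence as potentiators of the MG132 stress response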
T6 sequence (P38532 whole entry): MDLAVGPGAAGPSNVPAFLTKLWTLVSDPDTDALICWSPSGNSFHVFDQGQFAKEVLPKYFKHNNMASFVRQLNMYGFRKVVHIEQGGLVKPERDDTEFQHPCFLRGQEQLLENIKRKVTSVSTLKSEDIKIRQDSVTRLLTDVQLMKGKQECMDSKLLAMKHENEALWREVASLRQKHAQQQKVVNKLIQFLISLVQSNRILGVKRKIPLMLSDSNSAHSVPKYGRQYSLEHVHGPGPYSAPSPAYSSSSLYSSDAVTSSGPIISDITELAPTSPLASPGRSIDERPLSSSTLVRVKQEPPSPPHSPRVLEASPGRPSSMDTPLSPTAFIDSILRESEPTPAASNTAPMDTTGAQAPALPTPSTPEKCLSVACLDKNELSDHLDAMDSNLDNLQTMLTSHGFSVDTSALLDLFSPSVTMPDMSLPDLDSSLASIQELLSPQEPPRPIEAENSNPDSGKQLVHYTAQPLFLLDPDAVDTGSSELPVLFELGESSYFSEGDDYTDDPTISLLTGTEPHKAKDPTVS

Compound: O=C(Nc1cccc(-c2nc3ccccc3s2)c1)c1cc(=O)c2ccccc2o1
- IC50 [1]: 5.07 µM (active)

Compound: O=C(CN1C(=O)N/C(=C\c2ccccc2OCc2ccc(C(=O)O)cc2)C1=O)Nc1ccccc1F
- IC50 [1]: 7.13 µM (active)

Compound: COC(=O)[C@H](CCSC)NC(=O)NC1CCN(Cc2ccccc2)CC1
- EC50 [2]: > 300 µM (not active)
- EC50 [3]: > 300 µM (not active)

Compound: CC1(C)Oc2ccc3ccc(=O)oc3c2C(/C=N/c2ccccn2)=C1O
- IC50 (H9c2): > 79 µM (inactive)

Compound: Cc1nonc1OC(C)CNc1ccc([N+](=O)[O-])cc1 (stereo not given)
- IC50 (Protein skinhead-1): > 100 µM (inactive)

Compound: O=C(N/N=C/c1ccccn1)c1cc(-c2cccc3ccccc23)[nH]n1
- IC50 (H9c2): > 79 µM (inactive)

Compound: NC(=O)c1cccc(-c2coc3c(C(=O)NCCc4ccccc4)cccc23)c1
- IC50 (H9c2): > 79 µM (inactive)

Compound: CC(Oc1ccc(Br)cc1)C(=O)N1CCc2ccccc21 (stereo not given)
- EC50 [4]: 8.32 µM (active)

Compound: N#Cc1c(SCC(=O)Nc2cccc(C(F)(F)F)c2)sc2c(O)cc(O)nc12
- IC50 [1]: 10.4 µM (active)

Compound: Fc1ccc(CSc2nc3cc(Br)c[nH]c-3n2)cc1
- IC50 [1]: 9.63 µM (active)

Compound: Cc1ccc(/N=C/c2sc(O)c3ccccc23)c(C)c1
- EC50 [2]: > 300 µM (not active)
- EC50 [3]: > 300 µM (inconclusive)

Compound: COc1ccc(OC)c(C2C(C(=O)c3ccco3)=C(O)C(=O)N2CCN2CCOCC2)c1 (stereo not given)
- EC50 [2]: > 300 µM (not active)
- EC50 [3]: > 300 µM (not active)

Compound: Clc1ccc(OCCCc2nc(-c3ccncc3)no2)c(Cl)c1
- IC50 (Protein skinhead-1): 20.4 µM (active)

Compound: CC(C)c1ccc2oc(-c3ccc(NC(=O)c4nnc[nH]4)cc3)nc2c1
- IC50 [1]: 6.65 µM (active)

Compound: O=C(O)COc1ccc(Br)cc1/C=N/O
- IC50 [1]: 8.03 µM (active)

Compound: CCOC(=O)c1nc(Nc2ccc(C(=O)OC)cc2)c2ccccc2n1
- IC50 (H9c2): > 79 µM (inactive)

Compound: O=C1NC(=O)N(CCc2ccc(F)cc2)C(=O)/C1=C/NNC(=O)c1ccccc1
- EC50 [2]: > 300 µM (not active)
- EC50 [3]: > 300 µM (not active)

Compound: CCCC(=O)Nc1cc(C)c2c(=O)oc3ccccc3c2n1
- IC50 (H9c2): > 79 µM (inactive)

Compound: O=C(CSc1nc2ccccc2o1)NCc1nnc(O)c2ccccc12
- IC50 (H9c2): 8.34 µM (active)

Compound: O=C(NCCC1=CCCCC1)c1cnc2n(c1=O)CCS2
- EC50 [5]: 39.9 µM (active)
- EC50 (H4): 56.6 µM (active)

Compound: CN1CN(c2ccccc2)C2(CCN(CCCSc3ccccc3NC(=O)/C=C/c3ccccc3)CC2)C1=O
- EC50 [4]: 6.22 µM (active)

Compound: Cc1nnc(SCC2=C(C(=O)O)N3C(=O)C(NC(=O)COc4ccccc4)C3SC2)s1 (stereo not given)
- IC50 [1]: 8.97 µM (active)

Compound: CCCc1nc2ccccc2c(C(=O)OCc2nnc(-c3cc(OC)c(OC)c(OC)c3)o2)c1CC
- IC50 (H9c2): > 79 µM (inactive)

Compound: O=C(NCc1ccco1)C1CC(c2ccccc2O)=NO1 (stereo not given)
- EC50 [4]: > 53 µM (inactive)

Compound: Cc1sc2nc(NCCO)nc(O)c2c1C
- IC50 (H9c2): > 79 µM (inactive)

Compound: Fc1ccc(COc2ccc(-c3nnco3)cc2)c(Cl)c1
- IC50 (Protein skinhead-1): 6.56 µM (active)

Compound: NC(=O)CC(NC(=O)Cc1cccc2ccccc12)c1ccc(N2CCC(N3CCCCC3)CC2)c([N+](=O)[O-])c1 (stereo not given)
- IC50 (Protein skinhead-1): > 100 µM (inactive)

Compound: CC(=O)Oc1oc(-c2ccccc2)nc1/C=N/c1ccc(N(C)C)cc1
- EC50 [2]: > 300 µM (not active)
- EC50 [3]: > 300 µM (not active)

Compound: CCCCOc1ccc(-c2nnc(-c3ccco3)o2)cc1
- IC50 (Protein skinhead-1): > 100 µM (inactive)
- EC50 [6]: > 260 µM (inactive)

Compound: CCCn1c(=O)[nH]c(=O)c2c1nc(-c1ccccc1)n2CCN1CCOCC1
- IC50 [1]: 47.8 µM (active)

Compound: O=C1/C(=C/c2ccco2)CCc2ccccc21
- IC50 (Protein skinhead-1): 31.2 µM (active)

Compound: c1ccc(-c2noc(CC3CCCCC3)n2)cc1
- EC50 [5]: > 120 µM (not active)
- EC50 (H4): > 120 µM (not active)

Compound: O=C(Nc1ccc2c(c1)oc1ccccc12)N1CCOCC1
- EC50 [5]: 1.32 µM (active)
- EC50 (H4): > 120 µM (not active)

Compound: Cc1cc(C)nc(N2C(=O)CC(C(C)c3ccccc3)C2=O)n1 (stereo not given)
- IC50 (Protein skinhead-1): > 100 µM (inactive)

Compound: Cc1[nH]c2ccccc2c1/C=N/NC(=S)NC(C)C
- EC50 [2]: > 300 µM (not active)
- EC50 [3]: > 300 µM (not active)

Compound: CCOC(=O)N1CC=C2C(C#N)=C(N)C(C#N)(C#N)[C@H](c3ccsc3)[C@H]2C1
- EC50 [2]: 78.8 µM (active)
- EC50 [3]: 58.7 µM (active)

Compound: CN(C)S(=O)(=O)c1ccc(N2CCCC2)c(C(=O)NCc2cccc(C(F)(F)F)c2)c1
- IC50 (Protein skinhead-1): > 100 µM (inactive)

Compound: CCC(=O)N1c2ccc(S(=O)(=O)CCC(=O)NCc3cccs3)cc2CC1C (stereo not given)
- IC50 (Protein skinhead-1): > 100 µM (inactive)

Compound: O=C(N/N=C/c1ccccn1)c1ccc(NC(=O)c2cccc([N+](=O)[O-])c2)cc1
- IC50 (H9c2): > 79 µM (inactive)
